# Measured values: EP0775489A1, “INTERLEUKIN-5 PRODUCTION INHIBITOR” (TAISHO PHARMACEUTICAL CO. LTD, priority 1994, dated 1996)
# Legend:
# IL-5 production [1] = experiment: Inhibition of IL-5 production by D10.G4.1 Th2 cells stimulated with conalbumin and antigen presenting cells (IL-5 ELISA); format: cell-based; settings: inhibitory effect on IL-5 production; murine Th2 clone D10.G4.1 cells, conalbumin as antigen, 48 hours incubation, IL-5 in supernatant by ELISA
# Protocol: The action on IL-5 production in mice was examined according to the following method as disclosed in […], et al., Immunology Letters, Vol. 34, pp. 297-302 (1992). Murine Th2 clone (D10.G4.1 cells) was purchased from ATCC. Antigen presenting cells were prepared by suspending 1 x 10^7 spleen cells of a 8-week-old female C3H/HeN mice in 5 ml of an RPMI-1640 medium and incubated together with 50 μg/ml of mitomycin C (MMC) at 37°C for 30 minutes and then washed with three 50 ml portions of RPMI-1640. To RPMI-1640 containing 10% bovine serum were added 0.5 U of IL-2 (produced by Genzyme) and 5 x 10^-5 M of 2-mercaptoethanol to prepare a medium for tissue culture. A test compound was dissolved in dimethyl sulfoxide (DMSO) and diluted with the tissue culture medium to have a final DMSO concentration of 0.1% and a varied test compound concentration. In each well of a 96-well microtiter plate (produced by Corning Glass Works) were put each 50 μl/well of 4 x 10^5 cells/ml of D10.G4.1 cells, 2 x 10^6 cells/ml of MMC-treated antigen presenting cells, 400 μg/ml of conalbumin (produced by Sigma) as an antigen and the solution of the test compound in the tissue culture medium (to make 200 μl/well), and incubated in an incubator under 5% CO2 at 37°C for 48 hours. After completion of the incubation, the supernatant liquor of the culture was collected, and the cells were separated by centrifugation. The IL-5 in the supernatant liquor was determined with an IL-5 ELISA kit produced by ENDOGEN. […]
# ICR male mice = experiment: Oral toxicity (mortality) in mice; format: in vivo; settings: orally administered to ICR male mice grouped in fives, dose level of 100 mg/kg
# Text: The compounds of Examples 1, 2, and 3 were orally administered to ICR male mice grouped in fives.
# IL-5 production [2] = settings: reported in Japanese Journal of Allergology, 44(3-2), p. 424 (1993); judged not sufficient by the patent; cited from earlier work
Compound,IC50 (IL-5 production [1]),death (ICR male mice),inhibitory activity on IL-5 production (IL-5 production [2])
6-O-Methylerythromycin A 9-[O-(2-Chlorophenylmethyl)oxime] [Compound of Example 1],270 nM,No death was observed,
"11-Amino-9-N,11-N-cyclic ethylene-9-deoxo-11-deoxy-6-O-methylerythromycin A 9-Benzylamine 11-N,12-O-Cyclic Carbamate [Compound of Example 3]",120 nM,No death was observed,
"6-O-Methylerythromycin A 9-[O-(3-Methoxy-4-t-butylbenzyl)oxime] 11,12-Cyclic Carbonate [Compound of Example 2]",120 nM,No death was observed,
CC[C@H]1OC(=O)[C@H](C)[C@@H](O[C@H]2C[C@@](C)(OC)[C@@H](O)[C@H](C)O2)[C@H](C)[C@@H](O[C@@H]2O[C@H](C)C[C@H](N(C)C)[C@H]2O)[C@](C)(O)C[C@@H](C)/C(=N\OCOCCOC)[C@H](C)[C@@H](O)[C@]1(C)O [Roxithromycin],,,have an inhibitory activity on IL-5 production
CC[C@H]1OC(=O)[C@H](C)[C@@H](O[C@H]2C[C@@](C)(OC)[C@@H](O)[C@H](C)O2)[C@H](C)[C@@H](O[C@@H]2O[C@H](C)C[C@H](N(C)C)[C@H]2O)[C@](C)(O)C[C@@H](C)C(=O)[C@H](C)[C@@H](O)[C@]1(C)O [Erythromycin],,,have an inhibitory activity on IL-5 production
